Experimental data reported in patent publication US6130324A, “Amphipathic oligonucleotides and polynucleotides having potent antiviral activity” (University of Utah Research Foundation, priority 1999, dated 2000).
Like-named read-outs stand apart in the source and are kept apart here.

Experiments:
HIV strain RF = assay: Inhibition of cytopathic effect of HIV strain RF in CEM-SS cells; assay type: cell-based, human immunodeficiency virus
Method: (§1) Assays for anti-HIV activity of poly(1-propargylinosineic) prepared according to the procedure of Examples 1-4 were conducted by Dr. Robert Buckheit, Jr. of the Southern Research Institute with strains of HIV-1 and HIV-2 in various cell lines and with cell free preparations of reverse transcriptase as previously described, Broom et al. (1995), J. Med. Chem. 38:3253-3257.

HIV strain IIIB = assay: Inhibition of cytopathic effect of HIV strain IIIB in CEM-SS cells; assay type: cell-based, human immunodeficiency virus; conditions: polynucleotide concentration based on average molecular weight of 100,000, read-out: EC50 against cytopathic effect, virus IIIB
Method: as §1

HIV strain SK1 = assay: Inhibition of cytopathic effect of HIV strain SK1 in CEM-SS cells; assay type: cell-based, human immunodeficiency virus
Method: as §1

HIV strain ROD = assay: Inhibition of cytopathic effect of HIV strain ROD in CEM-SS cells; assay type: cell-based, human immunodeficiency virus
Method: as §1

HCMV strain AD-169 = assay: Anti-HCMV activity, AD-169 strain in MRC-5 cell line; assay type: cell-based, human cytomegalovirus; conditions: HCMV AD-169 in MRC-5 cell line; for EC50: Human betaherpesvirus 5, AD169, MRC5, read-out: ED50 (50% effective dose)
Method: (§2) Assays of anti-HCMV activity were conducted by Drs. R. Sidwell and J. Huffman at Utah State University with the AD-169 strain in the MRC-5 cell line as described in Huffman et al. (1994), Nucleosides and Nucleotides 33:607-613.

[1] = Cytotoxicity in the anti-HCMV assay (MRC-5 cell line); assay type: cell-based; conditions: human, mrc-5 cells
Method: as §2

[2] = test system: reverse transcriptase (RT); assay: Inhibition of reverse transcriptase in a cell free supernate; assay type: biochemical, human immunodeficiency virus; conditions: concentrations based on average molecular weight of 100,000
Method: as §1

MRC-5 cell line = assay: Cytotoxicity in the anti-HCMV assay (MRC-5 cell line); assay type: cell-based; conditions: MRC-5 cell line
Method: as §2

[3] = polynucleotide concentration based on average molecular weight of 100,000 daltons

Nc1ccn([C@H]2CC[C@@H](CO)O2)c(=O)n1 [ddC, reference compound]
EC50 (HIV strain RF; Human immunodeficiency virus 1, polynucleotide concentration based on average molecular weight of 100,000, read-out: EC50 against cytopathic effect, virus RF): 0.039 µM | EC50 (HIV strain IIIB; Human immunodeficiency virus 1, IIIB): 0.0693 µM | EC50 (HIV strain SK1; Human immunodeficiency virus 1, polynucleotide concentration based on average molecular weight of 100,000, read-out: EC50 against cytopathic effect, virus SK1): 0.0254 µM | EC50 (HIV strain ROD; Human immunodeficiency virus 1, polynucleotide concentration based on average molecular weight of 100,000, read-out: EC50 against cytopathic effect, virus ROD): 0.0621 µM

Nc1nc(O)c2ncn(COC(CO)CO)c2n1 [Ganciclovir, ganciclovir]
TI = CD50 / ED50 (HCMV strain AD-169): > 417 | EC50 (HCMV strain AD-169; [3]): 9.4 µM | EC50 (HCMV strain AD-169): 2.4 mg/L | CC50 [1]: > 1000 mg/L

poly(1-propargylinosinic acid)
EC50 (HIV strain RF; Table 2, RF strain, concentrations based on average molecular weight of 100,000, read-out: CEM-SS (RF), EC50): 0.131 µM | EC50 (HIV strain RF; polynucleotide concentration based on average molecular weight of 100,000, read-out: EC50 against cytopathic effect, virus RF): 0.131 µM | EC50 (HIV strain IIIB): 0.263 µM | EC50 (HIV strain SK1; polynucleotide concentration based on average molecular weight of 100,000, read-out: EC50 against cytopathic effect, virus SK1): 0.0444 µM | EC50 (HIV strain ROD; polynucleotide concentration based on average molecular weight of 100,000, read-out: EC50 against cytopathic effect, virus ROD): 0.0579 µM | EC50 [2]: 0.223 µM | ED50 (50% effective dose) (HCMV strain AD-169): 1.9 mg/L | ED50 (50% effective dose), molar (HCMV strain AD-169; [3]): 0.019 µM | CD50 (50% cytotoxic dose) (MRC-5 cell line): 316 µg/mL | CD50 (50% cytotoxic dose), molar (MRC-5 cell line; concentration based on average molecular weight of 100,000 daltons): 3.16 µM
